From patent US20040019018A1, “Rigid pyrrolidone modulators of pkc” (priority 2003, published 2004)
Where “and” joins values, the source holds several entries; their conditions need not be identical. Equal entries are not always repeated.

Experiments:
Test in all cases: [3H]PDBu displacement from recombinant PKC isozyme (baculovirus)
Format in all cases: binding
Conditions in all cases: [3H]PDBu competition
γ-PKC = biological target: T1, γ-PKC (Homo sapiens, UniProt P05129)
T1 construct: made in house; host or cells: Sf9 cells (baculovirus)
Description: (§1) The ability of representative compounds of the invention to bind specific isozymes of PKC was determined using an assay (Example 13) in which displacement of [20-^3H]phorbol -12,13-dibutyrate ([^3H]PDBu) from either recombinant PKC isozymes prepared in a Baculovirus system, or unresolved mixture of isozymes of PKC isolated from whole brain extracts, was used. These procedures are described below. […] (See the key that follows)
(§2) Analysis of [20-^3H]phorbol 12,13-dibutyrate binding to PKC. Specific binding of [^3H]PDBu to PKC was carried out as described (Kazanietz, et al., Mol. Pharmacol. 44:298-307 (1993)). [^3H]PDBu (20.0 Ci/mmol) was obtained from New England Nuclear. Phosphatidylserine and bovine […] were obtained from Sigma Chemical Co. Binding was determined in an incubation volume of 250 μl, containing [^3H]PDBu, PKC, 0.05 M Tris-Cl, pH 7.4, 100 μg/ml phosphatidylserine, various concentrations of the ligand being assayed for competition of [^3H]PDBu binding, and bovine […] at 1 mg/ml. In the case of the classical PKCs (α, β, […]) CaCl2 was included at a concentration of 0.1 mM. Liposomes of phosphatidylserine were prepared as follows. The phosphatidylserine solutions were dried down from CHCl3 under a stream of N2. After addition of 0.05 M Tris-Cl, pH 7.4, liposomes were prepared by sonication for 30 sec with the microtip probe of Sonifier Cell Disrupter (Heat Systems-Ultrasonics). [^3H]PDBu was used at a concentration twice the Kd previously determined for the specific receptor. Ligands were assayed over a concentration range of 3 orders of magnitude. Ligands were diluted in 0.05 M Tris-Cl, pH 7.4 containing 1 mg/ml bovine g-globulin. If the compounds were not soluble at the highest concentration used, they were dissolved in organic solvent (CHCl3 or ethanol) and mixed with the phosphatidylserine dissolved in CHCl3. The solvent was removed under a stream of N2.
(§3) Mixed liposomes were then prepared, as described for the preparation of the liposomes of phosphatidylserine alone, by the addition of 0.05 M Tris-Cl, pH 7.4, and sonication for 30 sec with the microtip probe of a Sonifier Cell Disrupter (Heat Systems-Ultrasonics). Incubation was for 5 min at 37° C. The samples were then be cooled to 4° C. for 8 min and 200 μl of 35% polyethylene glycol in 0.05 M Tris-Cl, pH 7.4 (w:w) added. After vigorous mixing, the samples were incubated for 15 min to allow precipitation of the receptor. The precipitate was recovered by centrifugation at 12,000 rpm in a Beckman microcentrifuge at 4° C. A 100 μl aliquot of the supernatant was removed and its radioactivity determined in a Wallac liquid scintillation counter, Model 1409. This value provided a measure of the concentration of unbound [^3H]PDBu. The remainder of the supernatant was removed by aspiration and blotting with absorbent tissue. The tip of the centrifuge tube was cut off and the radioactivity in the pellet measured to determine total bound [^3H]PDBu. Non-specific binding of [^3H]PDBu was measured in the presence of 30 μM non-radioactive PDBu and used to determine an apparent partition coefficient for [^3H]PDBu under these assay conditions.
(§4) Specific binding represents the difference between total binding and the non-specific binding, where the latter value was calculated from the partition coefficient and the measured free [^3H]PDBu concentration in each tube. In each experiment, triplicate determinations were performed at each concentration of competing ligand.

α-PKC = biological target: T2, α-PKC (Homo sapiens, UniProt P17252)
T2 construct: made in house; host or cells: Sf9 cells (baculovirus)
Description: as §1, §2, §3, §4

ε-PKC = biological target: T3, ε-PKC (Homo sapiens, UniProt Q02156)
T3 sequence (Q02156 1-737): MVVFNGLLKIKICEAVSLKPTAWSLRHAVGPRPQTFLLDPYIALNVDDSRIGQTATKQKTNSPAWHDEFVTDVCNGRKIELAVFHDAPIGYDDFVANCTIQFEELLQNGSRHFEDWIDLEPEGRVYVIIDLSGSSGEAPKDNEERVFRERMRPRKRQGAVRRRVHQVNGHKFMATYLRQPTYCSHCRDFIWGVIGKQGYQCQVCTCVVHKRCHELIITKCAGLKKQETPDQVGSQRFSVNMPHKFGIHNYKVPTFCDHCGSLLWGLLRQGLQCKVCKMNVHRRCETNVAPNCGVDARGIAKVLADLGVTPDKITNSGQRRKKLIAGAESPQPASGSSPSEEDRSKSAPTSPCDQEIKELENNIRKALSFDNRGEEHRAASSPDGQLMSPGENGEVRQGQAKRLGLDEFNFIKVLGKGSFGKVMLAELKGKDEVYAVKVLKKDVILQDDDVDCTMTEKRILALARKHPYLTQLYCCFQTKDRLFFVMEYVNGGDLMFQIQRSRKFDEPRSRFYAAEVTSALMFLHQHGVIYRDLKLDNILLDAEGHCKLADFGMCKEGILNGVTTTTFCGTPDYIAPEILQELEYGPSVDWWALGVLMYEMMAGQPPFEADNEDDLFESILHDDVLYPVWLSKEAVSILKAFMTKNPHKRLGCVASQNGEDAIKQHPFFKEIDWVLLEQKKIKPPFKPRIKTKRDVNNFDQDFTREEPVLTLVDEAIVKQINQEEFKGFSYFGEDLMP
Description: as §1, §2, §3, §4

| SMILES | Ki (γ-PKC) [nM] | Ki (α-PKC) [nM] | Ki (ε-PKC) |
| --- | --- | --- | --- |
| CCCCCCCCC#Cc1ccc2c(c1)C(C)(C(C)C)C1C(=O)NC(CO)C21 [Compound 1, (3S, 8R, 9S, 10S)-6-(dec-1′-ynyl)-3-hydroxymethyl-8-isopropyl-8-methyl-3,3a,8,8a-tetrahydro-2H-2-aza-cyclopenta[a]inden-1-one] | 279 ± 50 | 580 ± 214 | 469 nM and 946 nM |
| CCCCCCCCCCCC(=O)Oc1ccc2c(c1)[C@](C)(C(C)C)[C@H]1C(=O)N[C@H](CO)[C@@H]21 [Compound 2, (3S, 8R, 9S, 10S)-6-dodecanoyloxyl-3-hydroxymethyl-8-isopropyl-8-methyl-3,3a,8,8a-tetrahydro-2H -2-aza-cyclopenta[a]inden-1-one] | 209 ± 38 | 395 ± 71 | 515 ± 155 nM |
| CCCCCCCCCCCC(=O)Oc1ccc2c(c1)[C@@](C)(C(C)C)[C@H]1C(=O)N[C@H](CO)[C@@H]21 [Compound 3, (3S, 8S, 9S, 10S)-6-dodecanoyloxyl-3-hydroxymethyl-8-isopropyl-8-methyl-3,3a,8,8a-tetrahydro-2H -2-aza-cyclopenta[a]inden-1-one] | 327 ± 65 | 674 ± 249 | 228 ± 43 nM |
| CCCCCCCCCCCC(=O)Oc1cc2c(cc1C(C)=O)[C@@H]1[C@@H](CO)NC(=O)[C@@H]1[C@]2(C)C(C)C [Compound 4, (3S, 8S, 9S, 10S)-5-acetyl-6-dodecanoyloxyl-3-hydroxymethyl-8-isopropyl-8-methyl-3,3a,8,8a-tetrahydro-2H -2-aza-cyclopenta[a]inden-1-one] | 3650 ± 1090 | 2250 ± 585 | 5100 ± 3110 nM |

The remaining lines, values ahead:

| Ki (γ-PKC) [nM] | Ki (α-PKC) [nM] | Ki (ε-PKC) | SMILES |
| --- | --- | --- | --- |
| 1230 ± 258 | 2980 ± 1040 | 1300 ± 377 nM | CCCCCCCCCCCC(=O)Oc1cc2c(cc1Br)[C@@H]1[C@@H](CO)NC(=O)[C@@H]1[C@]2(C)C(C)C [Compound 5, (3S, 8S, 9S, 10S)-5-bromo-6-dodecanoyloxyl-3-hydroxymethyl-8-isopropyl-8-methyl-3,3a,8,8a-tetrahydro-2H -2-aza-cyclopenta[a]inden-1-one] |
| > 10000 | > 10000 | > 10000 nM | CCCCCCCCCCCC(=O)Oc1cc2c(cc1C(C)=O)[C@@H]1[C@@H](CO)NC(=O)[C@@H]1[C@@]2(C)C(C)C [Compound 11, (3S, 8R, 9S, 10S)-5-acetyl-6-dodecanoyloxyl-3-hydroxymethyl-8-isopropyl-8-methyl-3,3a,8,8a-tetrahydro-2H -2-aza-cyclopenta[a]inden-1-one] |
